For 13 compounds, Km results are on record in publication PMC4141209 (FEBS Open Bio, 2014).

For assay [1], the system named is TlLhpI. Kind of assay: NAD+ reduction at […] nm. Format: biochemical, Thermococcus litoralis.
Assay [2] concerns TlLhpI. The note with it: NAD+ 1.5 mM, Bis-tris propane pH 10.5, 50 °C.
For assay [3], the system named is TlLhpI. Kind of assay: NADH oxidation at […] nm. The note with it: NADH 0.15 mM, NH4Cl 700 mM, Tris-HCl pH 8.0, 50 °C. The class given is biochemical, Thermococcus litoralis.
For assay [4], the system named is TlLhpI. To be noted: NADH 0.15 mM, NH4Cl 700 mM, Tris-HCl pH 8.0, 50 °C.
The subject of assay [5] is TlLhpI. Kind of assay: NADH oxidation at […] nm. Format: biochemical, Thermococcus litoralis. The note with it: NADH 0.15 mM, potassium phosphate pH 6.0, 50 °C.
The subject of assay [6] is TlLhpI. The note with it: NADH 0.15 mM, potassium phosphate pH 6.0, 50 °C.
[7] abbreviates: NAD+ 1.5 mM, Bis-tris propane pH 10.5, 50 °C.
[8] abbreviates: NAD+-dependent oxidation, 50 °C.

Read-outs that look alike come from different tables or passages of the source.

In general, Km refers to the substrate concentration at which the rate is half of its maximum. As to `CCC[C@H](N)C(=O)O` [L-2-Aminovalerate], the Michaelis-Menten constant (Km) in the assay with TlLhpI [1] (setting [7]) was 306 ± 9 µM; in the assay with TlLhpI [2], 2130 ± 300 µM.
As to `CC(=O)C(=O)O` [Pyruvate], the Km in the assay with TlLhpI [3] turned out to be 9370 ± 230 µM; in the assay with TlLhpI [4] it was 62000 ± 12200 µM.
Take `O=C(O)[C@@H]1CCCCN1` [L-Pipecolate]: the Km with TlLhpI [1] (setting [8]) came out at 608 ± 115 µM.
For the compound `CC(C)CC(=O)C(=O)O` [4-Methyl-2-oxovalerate], the Michaelis constant (Km) in the assay on TlLhpI [3] stood at 2520 ± 450 µM.
Regarding `CCC(=O)C(=O)O` [2-Oxobutyrate], in the assay on TlLhpI [3], the Michaelis constant (Km) was 701 ± 20 µM.
Take `CN[C@@H](C)C(=O)O` [N-Methyl-L-alanine]: the Km in the assay with TlLhpI [1] (setting [8]) turned out to be 406 ± 44 µM.
On to `CCCC(=O)C(=O)O` [2-Oxovalerate], for which the values for the Km with TlLhpI [3] and in the assay on TlLhpI [4] were 969 ± 93 µM and 1820 ± 140 µM, respectively.
Turning to `O=C(O)C1=NCCC1` [Pyr2C, Δ^1-pyrroline-2-carboxylate], the Km is 944 ± 90 µM in the assay on TlLhpI [5] and 2770 ± 440 µM in the assay on TlLhpI [6].
For the compound `O=C(O)[C@@H]1CCCN1` [L-Proline], the values for the Km in the assay with TlLhpI [1] (setting [7]) and with TlLhpI [2] were 1120 ± 120 µM and 444 ± 8 µM, respectively.
`CC(C)C[C@H](N)C(=O)O` [L-Leucine]: the Km with TlLhpI [1] (setting [7]) came out at 1320 ± 100 µM.
With `O=C(O)CC(=O)C(=O)O` [Oxalacetate], the Km with TlLhpI [3] turned out to be 8860 ± 910 µM.
With `C[C@H](N)C(=O)O` [L-Alanine], the Michaelis-Menten constant (Km) was 18200 ± 5000 µM with TlLhpI [1] (setting [7]) and 36900 ± 900 µM in the assay on TlLhpI [2].
Regarding `CC[C@H](N)C(=O)O` [L-2-Aminobutyrate], the Km in the assay on TlLhpI [1] (setting [7]) came to 6000 ± 290 µM.
